Targets include CDK2 (Homo sapiens, UniProt P24941); PIK3R4 (Homo sapiens, UniProt Q99570); CDK9 (Homo sapiens, UniProt P50750); MAP2K1 (Homo sapiens, UniProt Q02750).
What all share (assay): biochemical
The next test deals with T1, TEC (Homo sapiens, UniProt P42680).
T1 sequence (P42680 1-631): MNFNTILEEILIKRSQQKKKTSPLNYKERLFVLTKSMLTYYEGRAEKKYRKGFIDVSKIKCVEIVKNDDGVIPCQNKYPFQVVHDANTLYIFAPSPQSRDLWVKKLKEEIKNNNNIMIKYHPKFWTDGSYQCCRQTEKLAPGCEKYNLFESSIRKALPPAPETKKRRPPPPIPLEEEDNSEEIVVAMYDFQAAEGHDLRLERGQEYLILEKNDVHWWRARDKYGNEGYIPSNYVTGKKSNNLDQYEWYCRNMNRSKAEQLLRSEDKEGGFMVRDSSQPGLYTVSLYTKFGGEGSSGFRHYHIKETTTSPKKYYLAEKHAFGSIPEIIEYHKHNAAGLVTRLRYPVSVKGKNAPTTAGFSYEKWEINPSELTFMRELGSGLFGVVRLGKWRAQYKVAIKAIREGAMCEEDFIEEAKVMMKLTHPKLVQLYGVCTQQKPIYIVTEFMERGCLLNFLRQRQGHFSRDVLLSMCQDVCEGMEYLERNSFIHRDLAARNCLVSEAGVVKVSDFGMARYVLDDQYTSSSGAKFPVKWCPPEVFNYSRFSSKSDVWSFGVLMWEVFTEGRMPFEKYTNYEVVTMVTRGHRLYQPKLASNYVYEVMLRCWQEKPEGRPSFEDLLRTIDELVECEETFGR

The target in a further test is T2, PHKG2 (Homo sapiens, UniProt P15735).
T2 sequence (P15735 1-406): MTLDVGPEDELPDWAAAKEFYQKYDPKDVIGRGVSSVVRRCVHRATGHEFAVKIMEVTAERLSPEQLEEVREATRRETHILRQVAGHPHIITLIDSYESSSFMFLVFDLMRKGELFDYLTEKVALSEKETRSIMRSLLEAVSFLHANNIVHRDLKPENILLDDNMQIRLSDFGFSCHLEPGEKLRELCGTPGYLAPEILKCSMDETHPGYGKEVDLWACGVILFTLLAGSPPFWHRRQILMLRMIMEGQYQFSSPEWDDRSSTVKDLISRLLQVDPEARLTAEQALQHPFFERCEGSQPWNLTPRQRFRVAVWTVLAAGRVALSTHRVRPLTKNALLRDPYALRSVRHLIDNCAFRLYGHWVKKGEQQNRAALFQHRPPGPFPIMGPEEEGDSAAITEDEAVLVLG

For the next test, the target named is T3, MYLK3 (Homo sapiens, UniProt Q32MK0).
T3 sequence (Q32MK0 1-819): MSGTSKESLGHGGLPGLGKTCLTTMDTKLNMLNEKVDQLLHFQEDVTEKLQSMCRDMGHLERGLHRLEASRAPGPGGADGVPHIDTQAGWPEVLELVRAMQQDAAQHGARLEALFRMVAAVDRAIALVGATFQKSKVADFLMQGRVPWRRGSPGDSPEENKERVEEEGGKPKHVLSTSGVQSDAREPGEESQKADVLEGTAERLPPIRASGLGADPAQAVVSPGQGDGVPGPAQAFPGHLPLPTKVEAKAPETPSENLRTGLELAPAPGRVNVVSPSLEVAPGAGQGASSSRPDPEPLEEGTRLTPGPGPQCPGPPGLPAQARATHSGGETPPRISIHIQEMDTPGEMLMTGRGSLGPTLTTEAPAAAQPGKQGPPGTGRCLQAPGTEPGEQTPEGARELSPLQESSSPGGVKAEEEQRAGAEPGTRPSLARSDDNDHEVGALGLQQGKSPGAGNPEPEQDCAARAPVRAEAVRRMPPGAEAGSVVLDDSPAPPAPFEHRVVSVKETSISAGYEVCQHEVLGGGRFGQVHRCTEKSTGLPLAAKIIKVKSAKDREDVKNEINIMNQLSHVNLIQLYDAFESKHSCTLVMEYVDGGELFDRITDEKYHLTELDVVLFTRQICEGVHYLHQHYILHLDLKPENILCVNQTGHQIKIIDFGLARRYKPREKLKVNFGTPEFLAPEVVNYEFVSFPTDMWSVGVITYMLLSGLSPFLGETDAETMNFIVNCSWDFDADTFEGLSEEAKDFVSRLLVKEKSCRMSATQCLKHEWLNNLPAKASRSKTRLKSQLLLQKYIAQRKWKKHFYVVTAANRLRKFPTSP

The target of another test is T4, PRKD2 (Homo sapiens, UniProt Q9BZL6).
T4 sequence (Q9BZL6 1-878): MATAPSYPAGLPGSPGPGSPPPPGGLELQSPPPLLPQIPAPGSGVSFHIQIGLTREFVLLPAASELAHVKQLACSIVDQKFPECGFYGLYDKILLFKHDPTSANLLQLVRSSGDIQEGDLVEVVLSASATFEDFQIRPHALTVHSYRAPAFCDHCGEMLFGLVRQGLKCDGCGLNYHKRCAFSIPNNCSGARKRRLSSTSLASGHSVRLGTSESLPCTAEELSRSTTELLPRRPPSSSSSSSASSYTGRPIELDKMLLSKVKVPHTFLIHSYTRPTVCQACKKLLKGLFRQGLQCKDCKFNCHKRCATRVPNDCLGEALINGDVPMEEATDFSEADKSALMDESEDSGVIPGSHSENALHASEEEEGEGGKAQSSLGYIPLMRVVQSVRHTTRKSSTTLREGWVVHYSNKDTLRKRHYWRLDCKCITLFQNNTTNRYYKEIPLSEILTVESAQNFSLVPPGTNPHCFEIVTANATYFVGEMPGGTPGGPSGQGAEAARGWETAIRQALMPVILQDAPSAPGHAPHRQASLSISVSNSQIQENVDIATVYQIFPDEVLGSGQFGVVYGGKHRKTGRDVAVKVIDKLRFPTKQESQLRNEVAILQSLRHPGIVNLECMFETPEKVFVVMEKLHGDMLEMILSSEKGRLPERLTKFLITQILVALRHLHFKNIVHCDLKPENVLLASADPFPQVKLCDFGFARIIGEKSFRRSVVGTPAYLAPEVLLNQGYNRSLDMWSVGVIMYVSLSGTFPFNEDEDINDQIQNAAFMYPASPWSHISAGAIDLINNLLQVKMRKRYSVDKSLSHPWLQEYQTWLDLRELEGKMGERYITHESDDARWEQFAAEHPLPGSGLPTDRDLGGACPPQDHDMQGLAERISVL

Where “and” joins values, the source holds several entries; their conditions need not be identical. Equal entries are not always repeated.

Sequence of PIK3R4 (Q99570 whole entry): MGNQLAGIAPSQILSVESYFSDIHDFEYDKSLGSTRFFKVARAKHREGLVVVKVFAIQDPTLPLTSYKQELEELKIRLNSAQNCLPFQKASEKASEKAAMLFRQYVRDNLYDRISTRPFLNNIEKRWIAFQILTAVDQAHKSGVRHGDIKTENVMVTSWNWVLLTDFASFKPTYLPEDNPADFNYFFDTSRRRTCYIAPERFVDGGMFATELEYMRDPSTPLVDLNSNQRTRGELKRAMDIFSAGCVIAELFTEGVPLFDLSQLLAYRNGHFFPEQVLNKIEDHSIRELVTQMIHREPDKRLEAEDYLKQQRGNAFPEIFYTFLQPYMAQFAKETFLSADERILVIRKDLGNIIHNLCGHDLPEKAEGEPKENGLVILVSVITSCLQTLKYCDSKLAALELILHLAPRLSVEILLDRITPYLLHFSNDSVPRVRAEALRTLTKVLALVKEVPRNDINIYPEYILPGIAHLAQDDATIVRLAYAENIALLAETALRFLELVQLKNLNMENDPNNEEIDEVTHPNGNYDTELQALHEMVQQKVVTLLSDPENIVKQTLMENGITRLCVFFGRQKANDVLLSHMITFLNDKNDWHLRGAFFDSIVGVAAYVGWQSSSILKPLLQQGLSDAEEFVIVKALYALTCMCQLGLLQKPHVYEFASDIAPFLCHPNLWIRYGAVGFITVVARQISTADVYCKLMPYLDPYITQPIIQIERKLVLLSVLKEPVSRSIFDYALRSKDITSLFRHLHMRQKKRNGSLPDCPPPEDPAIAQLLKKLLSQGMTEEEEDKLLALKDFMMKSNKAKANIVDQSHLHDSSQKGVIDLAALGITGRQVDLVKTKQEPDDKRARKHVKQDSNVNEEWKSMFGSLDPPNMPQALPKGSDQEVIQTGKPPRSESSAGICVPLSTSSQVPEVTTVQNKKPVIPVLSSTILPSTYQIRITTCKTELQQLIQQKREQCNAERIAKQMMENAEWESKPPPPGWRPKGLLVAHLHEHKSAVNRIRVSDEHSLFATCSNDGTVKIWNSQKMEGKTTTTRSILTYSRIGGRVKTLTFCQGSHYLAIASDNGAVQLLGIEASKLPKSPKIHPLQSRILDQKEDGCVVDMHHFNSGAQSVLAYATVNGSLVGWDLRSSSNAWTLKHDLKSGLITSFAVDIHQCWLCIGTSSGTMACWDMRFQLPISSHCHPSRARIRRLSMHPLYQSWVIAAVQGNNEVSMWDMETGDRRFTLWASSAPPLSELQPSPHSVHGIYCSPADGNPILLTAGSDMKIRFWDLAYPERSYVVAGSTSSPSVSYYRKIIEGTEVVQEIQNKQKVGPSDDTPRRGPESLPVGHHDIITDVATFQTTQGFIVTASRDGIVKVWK
Sequence of MAP2K1 (Q02750 whole entry): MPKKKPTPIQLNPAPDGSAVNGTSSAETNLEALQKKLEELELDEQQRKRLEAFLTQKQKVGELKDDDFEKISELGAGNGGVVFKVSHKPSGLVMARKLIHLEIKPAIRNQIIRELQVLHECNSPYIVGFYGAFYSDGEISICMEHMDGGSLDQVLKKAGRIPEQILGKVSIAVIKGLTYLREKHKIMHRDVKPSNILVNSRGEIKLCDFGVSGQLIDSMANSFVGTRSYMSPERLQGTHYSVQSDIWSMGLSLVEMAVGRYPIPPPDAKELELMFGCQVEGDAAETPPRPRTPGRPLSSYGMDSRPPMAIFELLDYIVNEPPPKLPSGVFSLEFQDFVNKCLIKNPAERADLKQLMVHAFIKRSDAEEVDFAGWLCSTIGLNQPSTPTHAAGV
Sequence of CDK9 (P50750 whole entry): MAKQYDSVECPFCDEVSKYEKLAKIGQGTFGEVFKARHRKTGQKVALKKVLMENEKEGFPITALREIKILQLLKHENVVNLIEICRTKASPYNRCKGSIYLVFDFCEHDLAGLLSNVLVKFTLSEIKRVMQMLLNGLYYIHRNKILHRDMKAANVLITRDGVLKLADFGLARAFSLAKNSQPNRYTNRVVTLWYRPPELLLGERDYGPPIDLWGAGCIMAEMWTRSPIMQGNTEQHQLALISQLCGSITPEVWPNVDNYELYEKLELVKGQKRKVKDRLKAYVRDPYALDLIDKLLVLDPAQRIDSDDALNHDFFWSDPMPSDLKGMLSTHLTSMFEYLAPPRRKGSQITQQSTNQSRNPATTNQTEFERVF

Turning to `CN1CCN(c2ccc(Nc3ncc(C#N)c(Nc4ccccc4C(N)=O)n3)cc2)CC1.Cl` [TCMDC-134116], the IC50 – broadly, the point on the concentration scale where inhibition reaches its midpoint – against CDK2 was 360 nM and 350 nM; against PIK3R4, 2.2 µM; against CDK9, 1.1 µM and 0.75 µM; at TEC, 460 nM and 490 nM; on MAP2K1, 1.8 µM and 1.6 µM; against PHKG2 it was 2.8 µM. For the same compound, the IC50 on MYLK3 is 67 nM and 93 nM; against PRKD2 it was 340 nM and 330 nM.
Consider `Cl.NCC1(c2nc(-c3ccc(Cl)c(O)c3)c(-c3ccncc3)[nH]2)CCCCC1` [TCMDC-141154], for which the IC50 was more than 20000 nM against CDK2; more than 20 µM against PIK3R4; more than 20 µM against CDK9; more than 20000 nM against TEC; 9.7 µM and > 20 µM at MAP2K1; more than 20 µM at PHKG2. The IC50 against MYLK3 was more than 20000 nM; at PRKD2 it was 5200 nM and 4300 nM.
Turning to `CN(C)CC(O)COc1ccc(Nc2ncc([N+](=O)[O-])c(Nc3ccccc3O)n2)cc1.O=C(O)C(F)(F)F` (stereo not drawn) [TCMDC-141399], the IC50 is more than 20000 nM against CDK2; more than 20 µM at PIK3R4; 5.3 µM and 7.3 µM at CDK9; more than 20000 nM against TEC; more than 20 µM against MAP2K1; more than 20 µM at PHKG2. The IC50 at MYLK3 is 2100 nM and 1800 nM; against PRKD2 it was 1900 nM.

Source of the values: publication PMC4774911, “Biochemical Screening of Five Protein Kinases from Plasmodium falciparum against 14,000 Cell-Active Compounds” (PLoS ONE, 2016).
